# Biological target: Protein farnesyltransferase (Homo sapiens, UniProt P49354+P49356)
# Test: FPT inhibitory activity was determined by the ability to inhibit the transfer of [3H]farnesyl from farnesyl pyrophosphate to H-ras-CLVS
# Type: protein-complex assay
row,SMILES,IC50
1,N#CN=C(Nc1ccc(C#N)cc1)N1CCC(=C2c3ccc(Cl)cc3CCc3cc(Br)cnc32)CC1,32 nM
2,N#CN=C(NCc1cccnc1)N1CCC(=C2c3ccc(Cl)cc3CCc3cc(Br)cnc32)CC1,15 nM
3,CS(=O)(=O)c1ccc(N/C(=N\C#N)N2CCC(=C3c4ccc(Cl)cc4CCc4cc(Br)cnc43)CC2)cc1,82 nM
4,N#CN=C(NCC1CCNCC1)N1CCC(=C2c3ccc(Cl)cc3CCc3cc(Br)cnc32)CC1,18 nM
5,N#CN/C(=N/c1ccncc1)N1CCC(=C2c3ccc(Cl)cc3CCc3cc(Br)cnc32)CC1,< 110 nM
6,N#C/N=C(\Nc1ccc(OC(F)(F)F)cc1)N1CCC(=C2c3ccc(Cl)cc3CCc3cc(Br)cnc32)CC1,320 nM
7,CC(C)c1ccc(N/C(=N\C#N)N2CCC(=C3c4ccc(Cl)cc4CCc4cc(Br)cnc43)CC2)cc1,150 nM
8,N#CN=C(N)N1CCC(=C2c3ccc(Cl)cc3CCc3cc(Br)cnc32)CC1,2600 nM
9,COc1ccc(C/N=C(/NC#N)N2CCC(=C3c4ccc(Cl)cc4CCc4cc(Br)cnc43)CC2)cc1,310 nM
10,N#CN/C(=N/c1ccccc1)N1CCC(=C2c3ccc(Cl)cc3CCc3cccnc32)CC1,86 nM
11,CC(C)NC(=NC#N)N1CCC(=C2c3ccc(Cl)cc3CCc3cc(Br)cnc32)CC1,124 nM
12,N#CN=C(NCc1ccccc1)N1CCC(=C2c3ccc(Cl)cc3CCc3cc(Br)cnc32)CC1,230 nM
13,N#CN=C(Nc1ccccc1)N1CCC(=C2c3ccc(Cl)cc3CCc3cc(Br)cnc32)CC1,116 nM
14,CN(C)c1ccc(CNC(=NC#N)N2CCC(=C3c4ccc(Cl)cc4CCc4cc(Br)cnc43)CC2)cc1,100 nM
15,CN(C)CCCC/N=C(/NC#N)N1CCC(=C2c3ccc(Cl)cc3CCc3cc(Br)cnc32)CC1,74 nM
16,N#CN/C(=N/CCc1ccncc1)N1CCC(=C2c3ccc(Cl)cc3CCc3cc(Br)cnc32)CC1,30 nM
17,O=C(Cc1ccc[n+]([O-])c1)N1CCC([C@H]2c3ncc(Br)cc3CCc3cc(Cl)cc(Br)c32)CC1,8.2 nM
18,N#CN=C(NCC1CCCCC1)N1CCC(=C2c3ccc(Cl)cc3CCc3cc(Br)cnc32)CC1,199 nM
19,N#CN/C(=N/CC1CCN(C(N)=O)CC1)N1CCC(=C2c3ccc(Cl)cc3CCc3cc(Br)cnc32)CC1,6 nM

row,SMILES,IC50
1,N#CN/C(=N/Cc1ccccn1)N1CCC(=C2c3ccc(Cl)cc3CCc3cc(Br)cnc32)CC1,29 nM
2,N#CN=C(NCCc1cnc[nH]1)N1CCC(=C2c3ccc(Cl)cc3CCc3cc(Br)cnc32)CC1,58 nM
3,N#CN/C(=N/CCO)N1CCC(=C2c3ccc(Cl)cc3CCc3cc(Br)cnc32)CC1,170 nM
4,N#CN/C(=N/CCOCCO)N1CCC(=C2c3ccc(Cl)cc3CCc3cc(Br)cnc32)CC1,84 nM
5,N#C/N=C(\Nc1ccc([N+](=O)[O-])cc1)N1CCC(=C2c3ccc(Cl)cc3CCc3cc(Br)cnc32)CC1,62 nM
6,N#CN=C(NCc1ccc[n+]([O-])c1)N1CCC(=C2c3ccc(Cl)cc3CCc3cc(Br)cnc32)CC1,12 nM
7,CCOC(=O)N1CCC(NC(=NC#N)N2CCC(=C3c4ccc(Cl)cc4CCc4cc(Br)cnc43)CC2)CC1,42 nM
8,N#CN/C(=N/Cc1ccc2c(c1)OCO2)N1CCC(=C2c3ccc(Cl)cc3CCc3cc(Br)cnc32)CC1,240 nM
9,N#CN=C(Nc1ccc(F)cc1)N1CCC(=C2c3ccc(Cl)cc3CCc3cc(Br)cnc32)CC1,38 nM
10,N#CN=C(Nc1ccc2c(c1)OCO2)N1CCC(=C2c3ccc(Cl)cc3CCc3cc(Br)cnc32)CC1,38 nM
11,CCCCNC(=NC#N)N1CCC(=C2c3ccc(Cl)cc3CCc3cc(Br)cnc32)CC1,105 nM
12,N#CN/C(=N/Cc1ccc[n+]([O-])c1)N1CCC([C@H]2c3ncc(Br)cc3CCc3cc(Cl)cc(Br)c32)CC1,1.7 nM
13,N#CN=C(Nc1ccc2c(c1)COCO2)N1CCC(=C2c3ccc(Cl)cc3CCc3cc(Br)cnc32)CC1,15 nM
14,N#CN/C(=N/C1CCCCC1)N1CCC(=C2c3ccc(Cl)cc3CCc3cc(Br)cnc32)CC1,20 nM
15,N#CN/C(=N/CCCn1ccnc1)N1CCC(=C2c3ccc(Cl)cc3CCc3cc(Br)cnc32)CC1,35 nM
16,N#CN/C(=N/Cc1cc[n+]([O-])cc1)N1CCC(=C2c3ccc(Cl)cc3CCc3cc(Br)cnc32)CC1,6 nM
17,N#CN=C(NC1CC1)N1CCC(=C2c3ccc(Cl)cc3CCc3cc(Br)cnc32)CC1,155 nM
18,O=C(CN1CCC(=C2c3ccc(Cl)cc3CCc3cccnc32)CC1)c1ccccc1,15800 nM

# Reference: ChEMBL document CHEMBL1135942, “Synthesis of 5,6-dihydro-11H-benzo[5,6]-cyclohepta[1,2-b]pyridin-11-ylidene)-1-piperidine-N-cyanoguanidine derivatives as inhibitors of ras farnesyl protein transferase” (Bioorg Med Chem Lett, 2002)
